Measurements published in US7560443B2, “Mixtures of fructose, sucrose and lactose as a low-calorie bulk sweetener with reduced glycemic index” (Vivalac, Inc. A Maryland Corp., priority 2002, dated 2009).
Read-outs that look alike come from different tables or passages of the source.

What was measured:
blood glucose = conditions: diabetic volunteers after normal insulin or oral agents, vs glucose (GI=100); cited from earlier work
human lactase = human lactase (Homo sapiens, UniProt P09848); conditions: in vitro; cited from earlier work
maltase = conditions: in vitro; cited from earlier work
plasma glucose [1] = conditions: glucose = 100, cited from earlier work
plasma glucose [2] = conditions: untreated diabetics, Gannon et al; cited from earlier work
human sucrase = human sucrase (Homo sapiens, UniProt P14410); conditions: in vitro; cited from earlier work
rabbit sucrase = rabbit sucrase (Oryctolagus cuniculus, UniProt P07768); conditions: in vitro; cited from earlier work
human small intestine = conditions: cited from earlier work
rabbit maltase = conditions: in vitro; cited from earlier work
rats [3] = conditions: cited from earlier work
rats [4] = conditions: cited from earlier work; for body fat lowering vs controls: pair-fed rats
plasma glucose [5] = experiment: OTT, aqueous solutions (25 g in 100 g water), type 2 diabetic subject (DM2); format: in vivo, human
Experimental: (§1) Test articles were aqueous solutions (in 200 g water) of 50 g of total carbohydrates, which were prepared early in the morning before the test. All of the same protocol criteria were applied for the test, as described in Example 1 above, except that times for blood samples were 0, 30, 45, 60, 90, 120, and 180 minutes. The test subjects were Subject #1, described above, and Subject #2, a healthy person (BMI=27.7 kg/m^2). See FIGS. 3 and 2, respectively, for results of their OTT's.
Calculation of estimated caloric value (ECV) demands some explanation here, as the calculation requires acceptance of some reasonable assumptions: • GI values for lactose monohydrate, fructose, sucrose and oat starch are 46, 23, 64, and 100, respectively. • Caloric values for lactose monohydrate, fructose, sucrose and oat starch are 3.8, 3.7, 3.9, and 3.7 kcal/g, respectively. • The order for complete active absorption of sugar mixtures from the small intestine to the bloodstream is fructose>starch (as maltose and α-dextrins)>sucrose>lactose. • Passive absorption of unhydrolyzed disaccharides is assumed to be zero for these calculations. • Disaccharides not actively absorbed pass to the colon, where they are fully degraded by microflora. • 78% of the disaccharides form short chain fatty acids (SCFA's), which are fully absorbed and used by the body with 50%×0.85=42.5% energy efficiency vs glucose (Livesey, Int J Food Sci Nutr, 44, 221-241, 1993). • 22% of the disaccharides are converted to biomass, which is calorically unavailable to the host (Weber et al, J Lab Clin Med, 110, 259-263, 1987). • NB—Starch (not part of the sweetener) which passes to the colon and is degraded microbially subtracts energy value from the sweetener, a component of which (lactose) caused it to pass to the colon.
The type 2 diabetic subject (DM2) was a person (BMI=32.8 kg/m^2), who was trying to control their diabetes without insulin or oral medications. Their daily drug regimen included Premarin®, Prempro®, Xenical®, and Lipitor®, all taken after OTT was completed each day. […]

plasma glucose [6] = experiment: OTT, aqueous sugar solutions (50 g in 200 g water), Subject #1; format: in vivo, human; conditions: Subject #1, N=3
Experimental: The test subject (Subject #1) was a person in good health, with a body mass index (BMI) equal to 28.6 kg/m^2. The subject was required to exercise moderately at least 30 minutes each day before testing, sleep at least 7 hours the previous night, and fast for no less than 12 hours prior to oral tolerance testing (OTT) early the next morning. Water was restricted 1.5 hours prior to testing, and only small sips of water were allowed infrequently during OTT. The test article, described below, was ingested as quickly as possible after the time 0 blood sample was obtained. Subsequent blood samples were taken at 30, 60, 90, 120, 150, and 180 minutes, and plasma glucose measurements were recorded in units of mg/dL immediately each time using a hand-held glucometer (At•Last model, Amira Medical, Scotts Valley, Calif. 95066). The subject abstained from food and remained sedentary during the 3-hour test. Clinical observations were noted and recorded continuously.
as §1, with “See FIGS. 3 and 2, respectively, for results of their OTT's.” left out

[7] = pair-feeding, lactose 30% of diet (Février 1969)
[8] = weanling male rats, 12% lactose, six weeks (Ali and Evans 1971)

Sequence of human lactase (P09848 869-1927): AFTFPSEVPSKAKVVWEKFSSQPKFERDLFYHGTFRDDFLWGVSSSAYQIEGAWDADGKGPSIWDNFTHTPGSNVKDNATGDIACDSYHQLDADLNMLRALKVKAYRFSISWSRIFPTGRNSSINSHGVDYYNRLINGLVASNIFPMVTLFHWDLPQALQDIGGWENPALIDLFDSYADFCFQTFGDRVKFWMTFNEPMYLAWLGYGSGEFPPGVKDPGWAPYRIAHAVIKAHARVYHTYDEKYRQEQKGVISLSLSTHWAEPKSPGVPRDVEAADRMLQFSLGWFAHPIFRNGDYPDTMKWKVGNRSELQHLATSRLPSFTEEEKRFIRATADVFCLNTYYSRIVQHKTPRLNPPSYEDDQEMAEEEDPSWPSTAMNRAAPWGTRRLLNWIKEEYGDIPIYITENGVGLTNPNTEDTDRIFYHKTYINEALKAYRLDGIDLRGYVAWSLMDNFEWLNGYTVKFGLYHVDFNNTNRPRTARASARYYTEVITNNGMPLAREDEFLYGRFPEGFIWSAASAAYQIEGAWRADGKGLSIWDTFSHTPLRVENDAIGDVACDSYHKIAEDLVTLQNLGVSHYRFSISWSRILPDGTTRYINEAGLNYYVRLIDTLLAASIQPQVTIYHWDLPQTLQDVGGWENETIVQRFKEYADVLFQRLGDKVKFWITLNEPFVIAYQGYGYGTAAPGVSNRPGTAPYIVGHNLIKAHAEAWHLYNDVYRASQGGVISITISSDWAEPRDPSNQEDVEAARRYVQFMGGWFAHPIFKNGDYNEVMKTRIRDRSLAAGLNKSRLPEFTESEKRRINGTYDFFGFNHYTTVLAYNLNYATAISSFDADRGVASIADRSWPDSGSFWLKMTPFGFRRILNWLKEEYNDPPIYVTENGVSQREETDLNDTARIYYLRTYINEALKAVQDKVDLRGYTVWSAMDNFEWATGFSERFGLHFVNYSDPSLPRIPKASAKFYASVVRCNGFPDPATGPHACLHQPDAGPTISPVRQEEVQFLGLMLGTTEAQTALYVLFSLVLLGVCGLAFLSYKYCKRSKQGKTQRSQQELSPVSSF
Sequence of human sucrase (P14410 whole entry): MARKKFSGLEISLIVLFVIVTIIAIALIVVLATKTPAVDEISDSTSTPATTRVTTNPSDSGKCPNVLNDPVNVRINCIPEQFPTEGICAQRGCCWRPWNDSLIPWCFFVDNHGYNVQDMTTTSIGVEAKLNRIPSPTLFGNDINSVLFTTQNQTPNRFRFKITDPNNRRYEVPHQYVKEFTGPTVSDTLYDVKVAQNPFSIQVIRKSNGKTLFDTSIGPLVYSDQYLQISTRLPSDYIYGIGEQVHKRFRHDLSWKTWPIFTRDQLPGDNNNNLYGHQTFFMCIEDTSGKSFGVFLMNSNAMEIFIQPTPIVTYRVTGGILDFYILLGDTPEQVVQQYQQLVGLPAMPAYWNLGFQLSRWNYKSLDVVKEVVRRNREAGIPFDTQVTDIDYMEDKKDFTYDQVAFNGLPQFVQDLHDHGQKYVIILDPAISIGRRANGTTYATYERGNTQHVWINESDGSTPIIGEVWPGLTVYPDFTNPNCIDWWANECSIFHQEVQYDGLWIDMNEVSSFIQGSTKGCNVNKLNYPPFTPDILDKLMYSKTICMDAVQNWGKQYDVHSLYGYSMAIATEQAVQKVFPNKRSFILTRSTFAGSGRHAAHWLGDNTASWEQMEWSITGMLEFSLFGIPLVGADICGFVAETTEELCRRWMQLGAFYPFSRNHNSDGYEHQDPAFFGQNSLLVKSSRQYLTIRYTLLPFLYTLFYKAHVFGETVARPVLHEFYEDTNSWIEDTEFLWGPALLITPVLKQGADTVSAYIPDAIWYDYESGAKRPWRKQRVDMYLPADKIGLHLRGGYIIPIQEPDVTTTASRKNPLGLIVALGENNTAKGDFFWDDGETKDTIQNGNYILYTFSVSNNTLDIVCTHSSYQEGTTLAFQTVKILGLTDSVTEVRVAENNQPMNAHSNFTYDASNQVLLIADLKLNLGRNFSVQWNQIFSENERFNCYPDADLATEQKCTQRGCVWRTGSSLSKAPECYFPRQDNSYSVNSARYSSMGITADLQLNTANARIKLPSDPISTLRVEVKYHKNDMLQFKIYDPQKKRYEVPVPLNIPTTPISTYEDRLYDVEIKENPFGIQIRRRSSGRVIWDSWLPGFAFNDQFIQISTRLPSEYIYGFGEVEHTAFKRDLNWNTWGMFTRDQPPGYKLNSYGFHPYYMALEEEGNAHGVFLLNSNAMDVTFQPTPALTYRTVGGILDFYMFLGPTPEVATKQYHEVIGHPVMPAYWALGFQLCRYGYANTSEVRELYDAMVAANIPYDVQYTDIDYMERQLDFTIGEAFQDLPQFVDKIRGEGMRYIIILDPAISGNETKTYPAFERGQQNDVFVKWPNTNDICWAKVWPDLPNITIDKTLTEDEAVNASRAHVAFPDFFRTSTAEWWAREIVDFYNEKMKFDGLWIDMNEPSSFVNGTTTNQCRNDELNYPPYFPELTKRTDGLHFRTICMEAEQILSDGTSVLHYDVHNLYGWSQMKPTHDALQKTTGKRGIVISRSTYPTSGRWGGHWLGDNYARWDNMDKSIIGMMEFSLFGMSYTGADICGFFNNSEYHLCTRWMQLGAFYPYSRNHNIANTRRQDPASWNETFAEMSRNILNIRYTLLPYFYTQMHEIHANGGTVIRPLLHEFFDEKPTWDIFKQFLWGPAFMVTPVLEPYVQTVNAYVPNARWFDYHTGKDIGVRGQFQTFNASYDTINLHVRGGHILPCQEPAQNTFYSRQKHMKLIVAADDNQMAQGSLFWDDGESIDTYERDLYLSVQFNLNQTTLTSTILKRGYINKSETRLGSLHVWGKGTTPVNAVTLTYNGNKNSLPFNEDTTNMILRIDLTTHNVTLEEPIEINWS
Sequence of rabbit sucrase (P07768 whole entry): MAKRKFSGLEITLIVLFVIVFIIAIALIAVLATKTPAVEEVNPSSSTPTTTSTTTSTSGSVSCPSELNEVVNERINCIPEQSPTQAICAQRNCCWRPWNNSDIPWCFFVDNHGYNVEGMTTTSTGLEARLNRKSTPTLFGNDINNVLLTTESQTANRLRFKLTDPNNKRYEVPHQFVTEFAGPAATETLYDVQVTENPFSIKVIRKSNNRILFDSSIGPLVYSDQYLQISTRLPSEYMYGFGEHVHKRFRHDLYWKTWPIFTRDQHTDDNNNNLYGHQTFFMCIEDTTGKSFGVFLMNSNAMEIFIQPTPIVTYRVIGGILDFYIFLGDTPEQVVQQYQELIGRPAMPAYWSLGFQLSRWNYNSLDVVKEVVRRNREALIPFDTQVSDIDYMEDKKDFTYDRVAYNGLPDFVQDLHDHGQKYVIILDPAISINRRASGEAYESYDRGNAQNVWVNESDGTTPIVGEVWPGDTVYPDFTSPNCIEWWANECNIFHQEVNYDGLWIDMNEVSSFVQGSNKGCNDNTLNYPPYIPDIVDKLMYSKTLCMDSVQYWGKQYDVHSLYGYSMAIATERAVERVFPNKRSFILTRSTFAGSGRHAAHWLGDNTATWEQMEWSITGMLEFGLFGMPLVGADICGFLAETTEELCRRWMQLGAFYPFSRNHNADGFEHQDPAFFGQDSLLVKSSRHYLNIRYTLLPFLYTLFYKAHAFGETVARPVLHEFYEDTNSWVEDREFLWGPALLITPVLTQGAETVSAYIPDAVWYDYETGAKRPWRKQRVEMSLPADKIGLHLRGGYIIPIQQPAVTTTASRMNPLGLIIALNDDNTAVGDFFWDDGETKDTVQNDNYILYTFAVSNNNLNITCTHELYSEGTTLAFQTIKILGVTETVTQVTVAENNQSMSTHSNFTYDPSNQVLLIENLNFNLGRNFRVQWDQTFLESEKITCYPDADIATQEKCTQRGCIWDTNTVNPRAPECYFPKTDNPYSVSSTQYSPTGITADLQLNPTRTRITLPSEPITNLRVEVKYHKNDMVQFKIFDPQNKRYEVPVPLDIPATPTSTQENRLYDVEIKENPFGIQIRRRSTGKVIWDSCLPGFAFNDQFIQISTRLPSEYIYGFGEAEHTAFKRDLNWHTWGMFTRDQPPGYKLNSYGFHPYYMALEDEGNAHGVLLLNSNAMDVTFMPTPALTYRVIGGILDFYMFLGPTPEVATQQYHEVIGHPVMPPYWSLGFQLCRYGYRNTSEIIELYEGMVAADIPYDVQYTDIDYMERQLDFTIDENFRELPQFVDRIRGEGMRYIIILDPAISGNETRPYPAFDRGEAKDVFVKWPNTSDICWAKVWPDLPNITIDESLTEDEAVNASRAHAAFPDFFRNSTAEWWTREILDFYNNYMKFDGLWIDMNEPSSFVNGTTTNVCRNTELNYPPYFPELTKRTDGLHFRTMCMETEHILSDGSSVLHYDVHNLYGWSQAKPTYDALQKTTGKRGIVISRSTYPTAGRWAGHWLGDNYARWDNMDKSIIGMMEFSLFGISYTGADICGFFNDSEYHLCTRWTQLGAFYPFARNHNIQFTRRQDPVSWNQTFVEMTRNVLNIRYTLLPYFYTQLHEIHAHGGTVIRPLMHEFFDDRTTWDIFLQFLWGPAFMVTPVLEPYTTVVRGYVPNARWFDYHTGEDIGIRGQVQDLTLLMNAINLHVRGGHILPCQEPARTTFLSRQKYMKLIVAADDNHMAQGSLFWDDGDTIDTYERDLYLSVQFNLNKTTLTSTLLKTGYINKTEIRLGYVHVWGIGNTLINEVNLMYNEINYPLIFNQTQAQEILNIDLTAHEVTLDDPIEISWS

Structure (SMILES): O=C(CO)[C@@H](O)[C@H](O)[C@H](O)CO [fructose]
- glycemic index (GI) (blood glucose): 24
- inhibition of lactose hydrolysis by human lactase (human lactase): competitively inhibit
- inhibition of maltose hydrolysis by maltase (maltase): no inhibiting effect
- glycemic index (GI) (plasma glucose [1]): 23
- GI values (plasma glucose [2]): 6
- inhibition of sucrose hydrolysis by human sucrase (human sucrase): inhibit

Structure (SMILES): O=C[C@H](O)[C@@H](O)[C@@H](O)[C@H](O)CO [galactose]
- inhibition of lactose hydrolysis by human lactase (human lactase): competitively inhibit
- inhibition of maltose hydrolysis by maltase (maltase): no inhibiting effect
- inhibition of rabbit sucrase (rabbit sucrase): no inhibition
- inhibition of sucrose hydrolysis by human sucrase (human sucrase): no inhibition
- absorption rate relative to fructose (human small intestine): ~1.2 times as fast as fructose
- inhibition of rabbit maltase (rabbit maltase): no inhibition

Structure (SMILES): OC[C@H]1O[C@@H](O[C@H]2[C@H](O)[C@@H](O)C(O)O[C@@H]2CO)[C@H](O)[C@@H](O)[C@H]1O (some centres unmarked) [lactose]
- relative availability compared to glucose (rats [3]; bioassay based on plasma ketones): 0.59
- relative availability compared to glucose (rats [3]; bioassay based on weight gain): 0.57
- metabolizable energy value (rats [3]): 2.1 kcal/g
- glycemic index (GI) (blood glucose): 48
- glycemic index (GI) (plasma glucose [1]): 46
- GI values (plasma glucose [2]): 32
- reduction of fat content (rats [4]; ad libitum feeding, lactose 30% of diet (Février 1969)): 20%
- reduction of growth rate (rats [4]; ad libitum feeding, lactose 30% of diet vs starch control (Février 1969)): 37%
- reduction of fat content (rats [4]; equalized-growth-feeding, lactose 30% of diet (Février 1969)): 12%
- body fat lowering vs controls (rats [4]; lactose 30% of diet (Whittier et al 1935)): 38%
- body fat lowering vs controls (rats [4]; lactose 50% of diet (Baker et al 1967)): 48%
- body fat lowering vs controls (rats [4]; lactose 52% of diet (Tomarelli et al 1960)): 40%
- reduction of fat content (rats [4]; [7]): 32%
- reduction of growth rate (rats [4]; [7]): 23%
- body fat reduction (rats [4]; [8]): 30%
- body moisture increase (rats [4]; [8]): 11%

Structure (SMILES): OC[C@H]1O[C@H](O[C@H]2[C@H](O)[C@@H](O)[C@H](O)O[C@@H]2CO)[C@H](O)[C@@H](O)[C@@H]1O [maltose]
- inhibition of lactose hydrolysis by human lactase (human lactase): no inhibiting effect

Structure (SMILES): OC[C@H]1O[C@@](CO)(O[C@H]2O[C@H](CO)[C@@H](O)[C@H](O)[C@H]2O)[C@@H](O)[C@@H]1O [sucrose]
- glycemic index (GI) (blood glucose): 63
- plasma glucose level relative to 200 mg/dL (plasma glucose [5]): broke above 200 mg/dL
- time of plasma glucose peak (plasma glucose [5]): 45 min
- AUC (plasma glucose [5]; 25 g in 100 g water, N=2): 6184 mg·min/dL
- inhibition of lactose hydrolysis by human lactase (human lactase): no inhibiting effect
- glycemic index (GI) (plasma glucose [1]): 64
- glycemic index (GI) (plasma glucose [1]; listed as SU): 64
- GI values (plasma glucose [2]): 43
- AUC (plasma glucose [6]): 2935 mg·min/dL
